Measurements from patent US12264170B2, “Antimicrobial organosilanes” (TOPIKOS SCIENTIFIC, INC., priority 2019, dated 2025).

Legend:
[1] = system: Pseudomonas aeruginosa ATCC 27853; assay: MIC microdilution assay (Example 32); assay type: cell-based; details: P. aeruginosa ATCC 27853 (quality control); CAMHB; 35±2° C. 18 to 20 hours; two values given
Procedure: (§1) Strain IDs starting with “ATCC” were acquired from the American Type Culture Collection (Manassas, VA), strain IDs starting with “Eurofins” were acquired from Eurofins (Herndon, VA), while strain IDs starting with “CDC” were acquired from the Centers for Disease Control and Prevention (Atlanta, GA). All strains were maintained as −80° C. frozen glycerol stocks. S. aureus and P. aeruginosa were grown overnight on Tryptic Soy Agar (TSA) plates at 35±2° C., ambient atmosphere, while S. pyogenes was grown overnight on TSA+5% defibrinated sheep blood at 35±2° C., 5% CO2. C. jejuni was grown for 48 hours on TSA+5% defibrinated sheep blood at 35±2° C., in a microaerophilic environment generated by CampyGen sachet. All fungal species (i.e. C. albicans and C. auris) were grown overnight on Sabouraud Dextrose Agar (SDA) plates at 35±2° C., ambient atmosphere.
(§2) Test article Compound 1 (batch #7G30A9.203) was stored at 4° C. The antibiotic Tobramycin and antifungal Amphotericin B were used as quality control (QC) compounds for the MIC assay. Stock solutions of 3.2 mg/mL Tobramycin (Sigma-Aldrich, cat #T1783-500MG) and 3.2 mg/mL Amphotericin B (CP Lab Chemicals, cat #TOK-A007-1G) were prepared in sterile ultrapure water.
(§3) For bacteria strains, a few colonies of each strain were collected with a sterile swab and used to make a McFarland 0.5 standard solution (approximately 1×10^8 CFU/mL) in sterile PBS. The McFarland was then diluted 1:180 in Cation Adjusted Muller-Hinton Broth (CAMHB) for S. aureus and P. aeruginosa. S. pyogenes McFarland was diluted 1:180 in CAMHB+5% defibrinated sheep blood, while C. jejuni McFarland was diluted 1:180 in CAMHB+5% laked horse blood. 90 μL of this inoculum was combined with 10 μL of the 10× test article in a 96-well plate for a final concentration of 1×.
(§4) Except for C. jejuni, all bacterial-strain MIC 96-well plates were incubated at 35±2° C. for 18 to 20 hours, ambient atmosphere. C. jejuni was incubated at 35±2° C. for 48 hours, under microaerophilic condition. All Candida MIC 96-well plates were incubated at 35±2° C. for 24 to 48 hours, ambient atmosphere, until growth in control wells were observed. After incubation, the 96-well plates were examined visually and on a spectrophotometer at absorbance OD650. MIC is defined as the lowest concentration of a compound in which no visible growth is observed.

[2] = system: Pseudomonas aeruginosa CDC 0248; assay: MIC microdilution assay (Example 32); assay type: cell-based; details: P. aeruginosa CDC 0248; CAMHB; 35±2° C. 18 to 20 hours; two values given
Procedure: as §1, §2, §3, §4

[3] = system: Pseudomonas aeruginosa Eurofins 1674623; assay: MIC microdilution assay (Example 32); assay type: cell-based; details: P. aeruginosa Eurofins 1674623; CAMHB; 35±2° C. 18 to 20 hours; two values given
Procedure: as §1, §2, §3, §4

[4] = system: Streptococcus pyogenes Eurofins 2065755; assay: MIC microdilution assay (Example 32); assay type: cell-based; details: S. pyogenes Eurofins 2065755; CAMHB+5% defibrinated sheep blood; 35±2° C. 18 to 20 hours; two values given
Procedure: as §1, §2, §3, §4

[5] = system: Pseudomonas aeruginosa ATCC 27853; assay: MBC/MFC determination (Example 32); assay type: cell-based; details: P. aeruginosa ATCC 27853; plated after 18 to 20 hours incubation; two values given
Procedure: (§5) 10 μL of liquid from each test condition was plated on the appropriate agar media for each test strain. Except for C. jejuni, all other strains were plated for MBC/MFC after 18 to 20 hours incubation, or until growth in growth control wells were visually observed. MBC for C. jejuni was plated 48 hours after incubation of the 96-well plate. Once the liquid from the 96-well plate has been allowed to air dry in a biosafety cabinet, the agar plates were incubated under the appropriate conditions and colony formation was assessed. MBC/MFC is defined as the lowest concentration of a compound in which no colonies were recovered.

[6] = system: Candida albicans ATCC 90028; assay: MBC/MFC determination (Example 32); assay type: cell-based; details: C. albicans ATCC 90028; plated after 18 to 20 hours incubation or until growth in control wells; two values given
Procedure: as §5

[7] = system: Acinetobacter baumannii Eurofins 1674627; assay: MBC/MFC determination (Example 32); assay type: cell-based; details: A. baumannii Eurofins 1674627; plated after 18 to 20 hours incubation; two values given
Procedure: as §5

Candida auris CDC 0385 [8] = assay: MBC/MFC determination (Example 32); assay type: cell-based; details: C. auris CDC 0385; plated after 18 to 20 hours incubation or until growth in control wells; two values given
Procedure: as §5

[9] = system: Campylobacter jejuni CDC 0413; assay: MBC/MFC determination (Example 32); assay type: cell-based; details: C. jejuni CDC 0413; plated 48 hours after incubation; two values given
Procedure: as §5

[10] = system: Pseudomonas aeruginosa CDC 0248; assay: MBC/MFC determination (Example 32); assay type: cell-based; details: P. aeruginosa CDC 0248; plated after 18 to 20 hours incubation; two values given
Procedure: as §5

[11] = system: Pseudomonas aeruginosa Eurofins 1674623; assay: MBC/MFC determination (Example 32); assay type: cell-based; details: P. aeruginosa Eurofins 1674623; plated after 18 to 20 hours incubation; two values given
Procedure: as §5

[12] = system: Streptococcus pyogenes Eurofins 2065755; assay: MBC/MFC determination (Example 32); assay type: cell-based; details: S. pyogenes Eurofins 2065755; plated after 18 to 20 hours incubation; two values given
Procedure: as §5

Aspergillus niger = assay: Disk diffusion susceptibility test; assay type: cell-based
Staphylococcus aureus = assay: Disk diffusion susceptibility test; assay type: cell-based; details: repeated experiment, FIG. 2
[13] = system: Proteus mirabilis and Pseudomonas aeruginosa; assay: Treatment of ocular infection in a dog; assay type: in vivo; details: male bull dog, 2% aqueous solution 3 times per day; for examination of the eyes: infection in both eyes
Procedure: A male bull dog presented with an infection in both eyes which was cultured and tested positive for Proteus mirabilis and Pseudomonas aeruginosa. The dog was administered a 2% aqueous solution of Compound 1 at a rate of 3 times per day for 7 days. […] On day 6, the dog was reexamined. […] To verify, a swab of the eye was taken and cultured. The culture was negative for both Proteus mirabilis and Pseudomonas aeruginosa.

Mycoplasma pneumoniae = assay: Disk diffusion susceptibility test; assay type: cell-based; details: repeated experiment, FIG. 2
Candida albicans = assay: Disk diffusion susceptibility test; assay type: cell-based
[14] = system: Candida albicans ATCC 90028; assay: MIC microdilution assay (Example 32); assay type: cell-based; details: C. albicans ATCC 90028 (quality control); RPMI media; 35±2° C. 24 to 48 hours; two values given
Procedure: as §1, §2, §3
(§6) For the yeasts C. albicans and C. auris, a McFarland 0.5 standard solution in sterile PBS was similarly prepared (approximately 1×10^6 CFU/mL) and was subsequently diluted 1:180 in RPMI 1640 media buffered with 0.165 M MOPS at pH 7.0 (herein referred to as “RPMI media”). 90 μL of the Candida inoculum was combined with 10 μL of the 10× test article in a 96-well plate for a final concentration of 1×.
as §4

Candida auris CDC 0385 [15] = assay: MIC microdilution assay (Example 32); assay type: cell-based; details: C. auris CDC 0385; RPMI media; 35±2° C. 24 to 48 hours; two values given
Procedure: as §1, §2, §3, §6, §4

Enterococcus faecalis = assay: Disk diffusion susceptibility test; assay type: cell-based
Fusarium oxysporum = assay: Disk diffusion susceptibility test; assay type: cell-based
[16] = 10 mg/mL, repeated experiment, FIG. 2
[17] = 100 mg/mL, repeated experiment, FIG. 2

CCCCCCCCCCCCCCCCCC[N+](C)(C)CCC[Si](OCC(CO)(CO)NCCS(=O)(=O)[O-])(OCC(CO)(CO)NCCS(=O)(=O)[O-])OCC(CO)(CO)NCCS(=O)(=O)O.[Cl-].[Na+].[Na+] [Compound 1]
MIC [1]: >64 µg/mL
MIC [2]: >64 µg/mL
MIC [3]: >64 µg/mL
MIC [4]: 8 µg/mL
MBC [5]: >64 µg/mL
MBC [6]: 1 µg/mL
MBC [7]: 64 µg/mL
MBC (Candida auris CDC 0385 [8]): 2 µg/mL
MBC [9]: 32 µg/mL
MBC [10]: >64 µg/mL
MBC [11]: >64 µg/mL
MBC [12]: 8 µg/mL
inhibition (zone of inhibition), disk diffusion (Aspergillus niger; [16]): complete inhibition
inhibition (zone of inhibition), disk diffusion (Aspergillus niger; [17]): complete inhibition
inhibition (zone of inhibition), disk diffusion (Aspergillus niger; 1% aqueous solution, FIG. 1): complete inhibition
inhibition (zone of inhibition), disk diffusion (Aspergillus niger; 2% aqueous solution, FIG. 1): complete inhibition
inhibition (zone of inhibition), disk diffusion (Staphylococcus aureus; 1 mg/mL): complete inhibition
inhibition (zone of inhibition), disk diffusion (Staphylococcus aureus; 10 mg/mL): complete inhibition
inhibition (zone of inhibition), disk diffusion (Staphylococcus aureus; 100 mg/mL): complete inhibition
examination of the eyes ([13]; day 2): signs of reduced infection
examination of the eyes ([13]; day 6): no sign of infection
culture of eye swab for Proteus mirabilis and Pseudomonas aeruginosa ([13]; swab at day 6): negative
inhibition (zone of inhibition), disk diffusion (Mycoplasma pneumoniae; 1 mg/mL): complete inhibition
inhibition (zone of inhibition), disk diffusion (Mycoplasma pneumoniae; 10 mg/mL): complete inhibition
inhibition (zone of inhibition), disk diffusion (Mycoplasma pneumoniae; 100 mg/mL): complete inhibition
inhibition (zone of inhibition), disk diffusion (Candida albicans; [16]): complete inhibition
inhibition (zone of inhibition), disk diffusion (Candida albicans; [17]): complete inhibition
inhibition (zone of inhibition), disk diffusion (Candida albicans; 1% aqueous solution, FIG. 1): complete inhibition
inhibition (zone of inhibition), disk diffusion (Candida albicans; 2% aqueous solution, FIG. 1): complete inhibition
MIC [14]: 1 µg/mL
MIC (Candida auris CDC 0385 [15]): 1 µg/mL
inhibition (zone of inhibition), disk diffusion (Enterococcus faecalis; 1 mg/mL, repeated experiment, FIG. 2): complete inhibition
inhibition (zone of inhibition), disk diffusion (Enterococcus faecalis; [16]): complete inhibition
inhibition (zone of inhibition), disk diffusion (Enterococcus faecalis; [17]): complete inhibition
inhibition (zone of inhibition), disk diffusion (Enterococcus faecalis; 1% aqueous solution, FIG. 1): complete inhibition
inhibition (zone of inhibition), disk diffusion (Enterococcus faecalis; 2% aqueous solution, FIG. 1): complete inhibition
inhibition (zone of inhibition), disk diffusion (Fusarium oxysporum; [16]): complete inhibition
inhibition (zone of inhibition), disk diffusion (Fusarium oxysporum; [17]): complete inhibition
inhibition (zone of inhibition), disk diffusion (Fusarium oxysporum; 1% aqueous solution, FIG. 1): complete inhibition
inhibition (zone of inhibition), disk diffusion (Fusarium oxysporum; 2% aqueous solution, FIG. 1): complete inhibition
